Format in all cases: biochemical
One assay has as its target T1, human MAGL (Homo sapiens, UniProt Q99685).
T1 construct: expressed in transfected cells; host or cells: HEK293T (transient transfection; membrane fraction)
T1 sequence (Q99685 1-303): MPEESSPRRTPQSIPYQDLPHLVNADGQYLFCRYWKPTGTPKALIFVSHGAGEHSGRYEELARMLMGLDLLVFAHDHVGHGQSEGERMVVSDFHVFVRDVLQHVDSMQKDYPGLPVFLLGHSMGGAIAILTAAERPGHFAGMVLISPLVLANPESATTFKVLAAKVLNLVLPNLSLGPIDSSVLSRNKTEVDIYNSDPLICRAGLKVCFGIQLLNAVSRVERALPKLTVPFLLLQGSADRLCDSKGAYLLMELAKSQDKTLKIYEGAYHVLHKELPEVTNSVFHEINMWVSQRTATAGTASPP
In words: MAGL activity assay (AA-HNA fluorogenic substrate). A digest of the protocol:
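Activity was taken as the fluorescence slope over 5–15 min after adding AA-HNA (10 µl of a 200 µM solution), with readings every minute for 30 min. Before substrate addition, inhibitors were incubated for 30 min with MAGL-overexpressing membranes from transfected HEK293T cells in HEPES buffer (40 mM, pH 7.5, 0.1 mg/ml BSA).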

The target of the next assay is T2, endogenous mouse MAGL (Mus musculus, UniProt O35678).
T2 construct: on endogenous MAGL, we applied an ABPP assay with mouse brain membrane proteome; from tissue; host or cells: mouse brain membrane fraction
T2 sequence (O35678 1-303): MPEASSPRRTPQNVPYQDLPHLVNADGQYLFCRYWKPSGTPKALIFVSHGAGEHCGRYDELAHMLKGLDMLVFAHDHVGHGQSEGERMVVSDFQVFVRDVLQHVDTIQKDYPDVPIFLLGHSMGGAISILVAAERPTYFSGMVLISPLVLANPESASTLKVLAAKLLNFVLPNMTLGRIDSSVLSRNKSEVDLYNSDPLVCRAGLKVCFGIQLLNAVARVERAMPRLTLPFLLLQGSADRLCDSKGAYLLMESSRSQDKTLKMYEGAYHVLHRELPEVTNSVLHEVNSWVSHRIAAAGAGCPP
In words: Competitive ABPP, mouse brain membrane proteome: MAGL band. To be noted: FP-TAMRA 250 nM. As for the experimental part:
Mouse brains were isolated according to guidelines approved by the ethical committee of Western China Hospital, Sichuan University (No. 2021765A). Mouse brains were dounce homogenized lysis buffer (20 mM HEPES, 2 mM DTT, 1 mM MgCl2, 25 U/mL benzonase) and incubated on ice for 15 min, followed by low-speed spin (2,500 g, 3 min, 4 C) to remove debris. The supernatant was subjected to ultracentrifugation (100,000 g, 45 min, 4°C) to generate the cytosolic fraction in the supernatant, as well as the membrane fraction as a pellet. After removal of the soluble supernatant, the pellet was resuspended in storage buffer (20 mM HEPES, 2 mM DTT) by pipetting. Total protein concentrations in membrane and soluble fractions were determined using a Qubit protein assay (Invitrogen). The obtained samples were stored at −80°C until further use.
The competitive ABPP selectivity assay was performed according to the previously reported protocol. Briefly, mouse brain membrane proteome (2 mg/ml, 20 µl) was preincubated for 30 min with 0.5 µl of DMSO (vehicle) or inhibitor (100 μM, finial concentration). Subsequently, the proteome-inhibitor complex was treated with the activity-based probe FP-TAMRA (250 nM, final concentration) for 20 min. […] The gels were then scanned and analyzed using a ChemiDoc MP system (Cy3 settings, BioRad). All the samples were measured and duplicated.

In assay [1] the test system is endogenous MAGL in cancer cells. In words: Competitive ABPP in cancer cell lysates: MAGL band. The settings on record: 100 µM, FP-TAMRA 500 nM. As for the experimental part:
To identify the potential off-targets of the compounds with anti-cancer activities, ABPP was applied. Cancer cells were seeded in the dishes and were washed with PBS, scraped, centrifugated (3,000 × g, 3 min) and pellets snap frozen in liquid in nitrogen. For ABPP experiments, the cell pellets were lysed by probe sonication (3 × 10 bursts) in PBS, followed by the determination of protein concentration of the intact cell lysate by Qubit assay. […] The reactions were then quenched by 10 µl sample buffer (×4). The obtained samples were directly loaded and resolved on SDS-PAGE gel (10% acrylamide). The gel-based ABPP results were then scanned and analyzed using a ChemiDoc MP system (Cy3 settings, BioRad).

Where [2] appears, read: 100 µM, AA-HNA substrate assay, Supplementary Table 1, read-out: MAGL Inhibition (%).

Structures are written as SMILES. Where two headings read alike, the source gives them in different places. Some results are limits rather than exact numbers.

Take `Cl.N=c1ccn2c(n1)O[C@H]1[C@H](O)[C@@H](CO)O[C@H]12` [compound 1, Cyclocytidine HCl]: on human MAGL (setting [2]), the activity was determined as 31.7%.
Take `O=c1cc(-c2ccc(O)cc2)oc2cc(O)cc(O)c12` [compound 9, Apigenin]: on human MAGL (100 µM, AA-HNA assay), the inhibition (in general, the drop in the measured response relative to a control, in per cent) at 100 µM was more than 80%.
As for `COc1ccc2cc3[n+](cc2c1OC)CCc1cc2c(cc1-3)OCO2` [compound 17, Berberine chloride], at human MAGL (setting [2]), the activity at 100 µM came to 82.8%.
Regarding `C[C@H]1COC2=C1C(=O)C(=O)c1c2ccc2c1CCCC2(C)C` [compound 23, Cryptotanshinone], the inhibition at 100 µM against human MAGL (100 µM, AA-HNA assay) was more than 80%; on endogenous mouse MAGL it was 50 to 60%. Moreover, the activity at 100 µM at human MAGL (setting [2]) turned out to be 11.2%. The IC50 at human MAGL (printed in Figure 3B-D, read-out: IC50 (MAGL, AA-HNA assay)) was 11 µM; on human MAGL (recombinant human MAGL, AA-HNA assay, average ± SEM, n = 4, read-out: MAGL inhibition (pIC50) (converted)), 12.6 µM. For the same molecule, the “labeling of endogenous MAGL, A549” value in assay [1] (30 min, A549 cell lysate) is on record as “completely reduced the labeling”. For the same molecule, in assay [1] (30 min, B16-F10 cell lysate), the “labeling of endogenous MAGL, B16-F10” value is recorded as “completely reduced the labeling”. In addition, in assay [1] (30 min, H1975 cell lysate), the “labeling of endogenous MAGL, H1975” value is “completely reduced the labeling”. In assay [1] (30 min, HCC827 cell lysate), the “labeling of endogenous MAGL, HCC827” value was “completely reduced the labeling”. Also, the “labeling of endogenous MAGL, HT-29” value in assay [1] (30 min, HT-29 cell lysate) was “completely reduced the labeling”. Also, in assay [1] (30 min, Hela cell lysate), the “labeling of endogenous MAGL, Hela” value is listed as “completely reduced the labeling”. Besides, in assay [1] (30 min, OVCAR-3 cell lysate), the “labeling of endogenous MAGL, OVCAR-3” value is “completely reduced the labeling”. Further, the “inhibition of endogenous MAGL in the tested cancer cell lines” value in assay [1] (cancer cell lysates) is “nearly complete inhibition”.
As for `COc1ccc(C(C)=O)c(O)c1` [compound 64, Paeonol], the activity at 100 µM on human MAGL (setting [2]) came to 102%.

Values taken from publication PMC9465256, “Discovering monoacylglycerol lipase inhibitors by a combination of fluorogenic substrate assay and activity-based protein profiling” (Frontiers in Pharmacology, 2022).
